The text below walks through data of patent US9840520B2, “Heterocyclic hydroxamic acids as protein deacetylase inhibitors and dual protein deacetylase-protein kinase inhibitors and methods of use thereof” (The Regents of the University of Colorado, A Body Corporate, priority 2014, dated 2017).

Format in all cases: cell-based
The subject of one assay is 786-0. The assay can be described thus: NCI60 tumour cell line screen, 786-0. Conditions: Homo sapiens; 786-0, Renal Cancer.
A further assay deals with NCI-H226. The assay can be described thus: NCI60 tumour cell line screen, NCI-H226. Conditions: Homo sapiens; NCI-H226, Non-Small Cell Lung Cancer.
The subject of the next assay is NCI-H322M. The assay can be described thus: NCI60 tumour cell line screen, NCI-H322M. Conditions: Homo sapiens, Non-Small Cell Lung Cancer.
A further assay has as its system CCRF-CEM. The assay can be described thus: NCI60 tumour cell line screen, CCRF-CEM. Conditions: Homo sapiens, Leukemia.
For another assay, the system named is K-562. The assay can be described thus: NCI60 tumour cell line screen, K-562. As to conditions: Homo sapiens, K562; K-562, Leukemia.
Another assay relates to RPMI-8226. The assay can be described thus: NCI60 tumour cell line screen, RPMI-8226. As to conditions: Homo sapiens; RPMI-8226, Leukemia.
The subject of a further assay is SR. The assay can be described thus: NCI60 tumour cell line screen, SR. Conditions: Homo sapiens, Leukemia.
In the next assay the test system is UACC-257. The assay can be described thus: NCI60 tumour cell line screen, UACC-257. As to conditions: Homo sapiens; UACC-257, Melanoma.
Another assay relates to NCI/ADR-RES. The assay can be described thus: NCI60 tumour cell line screen, NCI/ADR-RES. Conditions: Homo sapiens, Ovarian Cancer.
For another assay, the system named is SK-OV-3. The assay can be described thus: NCI60 tumour cell line screen, SK-OV-3. As to conditions: Homo sapiens; SK-OV-3, Ovarian Cancer.
The test system of a further assay is HS578T. The assay can be described thus: NCI60 tumour cell line screen, HS578T. As to conditions: Homo sapiens, Hs-578T, Breast Cancer.
The test system of a further assay is HCT-15. The assay can be described thus: NCI60 tumour cell line screen, HCT-15. As to conditions: Homo sapiens; HCT-15, Colon Cancer.
The next assay has as its system HT29. The assay can be described thus: NCI60 tumour cell line screen, HT29. Conditions: Homo sapiens, HT-29; HT29, Colon Cancer.
The test system of a further assay is KM12. The assay can be described thus: NCI60 tumour cell line screen, KM12. Conditions: Homo sapiens; KM12, Colon Cancer.
In the next assay the test system is SW-620. The assay can be described thus: NCI60 tumour cell line screen, SW-620. Conditions: Homo sapiens; SW-620, Colon Cancer.

The GI50 is the concentration giving 50% growth inhibition. Lower therefore signals greater sensitivity of the cells.

Consider `O=C(CCCCCOc1ccc(Nc2nc(NC3CCCCC3)c3nc[nH]c3n2)cc1)NO` [Example 3, 6-(4-(6-(cyclohexylamino)-9H-purin-2-ylamino)phenoxy)-N-hydroxyhexanamide], for which the GI50 with 786-0 was determined as 4610 nM; in the assay on NCI-H226, 2880 nM; in the assay on NCI-H322M it was 3000 nM; with CCRF-CEM it was 667 nM; with K-562, 2030 nM; in the assay on RPMI-8226 it was 2810 nM. In addition, the GI50 in the assay on SR stood at 669 nM; with UACC-257, 2940 nM; in the assay on NCI/ADR-RES it was 13500 nM; with SK-OV-3, 2520 nM; in the assay with HS578T, 1610 nM; in the assay with HCT-15 it was 4300 nM. The 50% growth inhibitory concentration (GI50) in the assay on HT29 came to 2540 nM; in the assay with KM12 it was 1740 nM; in the assay on SW-620, 895 nM.
